Results from the supplement of paper PMC10307832.

Tests used:
Assay in all cases: relative viability (nuclei count vs DMSO), 5 days (fraction); higher = more cells survive
Dovitinib + Pictilisib = compound: CN1CCN(c2ccc3nc(-c4c(N)c5c(F)cccc5[nH]c4=O)[nH]c3c2)CC1 [Dovitinib] + CS(=O)(=O)N1CCN(Cc2cc3nc(-c4cccc5[nH]ncc45)nc(N4CCOCC4)c3s2)CC1 [Pictilisib] (partner 1 µM)
In short: (§1)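 For relative viability, nuclei counts in treated wells were divided by those in vehicle wells. Lung cancer cell lines had been pin-tool dosed in 1536-well plates the day after seeding and cultured for 5 days, then fixed and stained in one step (final 0.05% Triton X-100, 1% formaldehyde, 1 ug/ml Hoechst) and imaged at 4×. Doses were one drug alone or a fixed anchor-drug dose plus five library-drug doses (not always all listed) in √10 steps, and values are duplicate-plate medians.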

Dovitinib + Phenformin = compound: CN1CCN(c2ccc3nc(-c4c(N)c5c(F)cccc5[nH]c4=O)[nH]c3c2)CC1 [Dovitinib] + N=C(N)NC(=N)NCCc1ccccc1 [Phenformin] (partner 250 µM)
In short: as §1

Dovitinib + Palbociclib = compound: CN1CCN(c2ccc3nc(-c4c(N)c5c(F)cccc5[nH]c4=O)[nH]c3c2)CC1 [Dovitinib] + CC(=O)c1c(C)c2cnc(Nc3ccc(N4CCNCC4)cn3)nc2n(C2CCCC2)c1=O [Palbociclib] (partner 0.5 µM)
In short: as §1

Dovitinib + Decitabine = compound: CN1CCN(c2ccc3nc(-c4c(N)c5c(F)cccc5[nH]c4=O)[nH]c3c2)CC1 [Dovitinib] + Nc1ncn([C@H]2C[C@H](O)[C@@H](CO)O2)c(=O)n1 [Decitabine] (partner 2 µM)
In short: as §1

| Cell Line | relative viability (Dovitinib + Pictilisib; first compound 0.02 µM) | relative viability (Dovitinib + Pictilisib; first compound 0.06325 µM) | relative viability (Dovitinib + Pictilisib; first compound 0.2 µM) | relative viability (Dovitinib + Pictilisib; first compound 0.6325 µM) | relative viability (Dovitinib + Pictilisib; first compound 2 µM) | relative viability (Dovitinib + Phenformin; first compound 0.02 µM) | relative viability (Dovitinib + Phenformin; first compound 0.06325 µM) | relative viability (Dovitinib + Phenformin; first compound 0.2 µM) | relative viability (Dovitinib + Phenformin; first compound 0.6325 µM) | relative viability (Dovitinib + Phenformin; first compound 2 µM) | relative viability (Dovitinib + Palbociclib; first compound 0.02 µM) | relative viability (Dovitinib + Palbociclib; first compound 0.06325 µM) | relative viability (Dovitinib + Palbociclib; first compound 0.2 µM) | relative viability (Dovitinib + Palbociclib; first compound 0.6325 µM) | relative viability (Dovitinib + Palbociclib; first compound 2 µM) | relative viability (Dovitinib + Decitabine; first compound 0.02 µM) | relative viability (Dovitinib + Decitabine; first compound 0.06325 µM) | relative viability (Dovitinib + Decitabine; first compound 0.2 µM) | relative viability (Dovitinib + Decitabine; first compound 0.6325 µM) | relative viability (Dovitinib + Decitabine; first compound 2 µM) |
| --- | --- | --- | --- | --- | --- | --- | --- | --- | --- | --- | --- | --- | --- | --- | --- | --- | --- | --- | --- | --- |
| NCI-H1993 | 0.762 | 0.886 | 0.825 | 0.819 | 0.787 | 0.483 | 0.516 | 0.496 | 0.499 | 0.505 | 0.856 | 0.721 | 0.639 | 0.547 | 0.66 | 0.637 | 0.598 | 0.67 | 0.683 | 0.622 |
| NCI-H838 | 0.458 | 0.431 | 0.499 | 0.466 | 0.503 | 0.553 | 0.627 | 0.74 | 0.62 | 0.662 | 0.231 | 0.209 | 0.217 | 0.217 | 0.228 | 0.458 | 0.452 | 0.529 | 0.495 | 0.46 |
| NCI-H1437 | 0.512 | 0.537 | 0.434 | 0.494 | 0.464 | 0.297 | 0.292 | 0.595 | 0.304 | 0.346 | 0.305 | 0.301 | 0.321 | 0.32 | 0.321 | 0.509 | 0.615 | 0.592 | 0.573 | 0.549 |
| NCI-H2170 | 0.268 | 0.337 | 0.318 | 0.265 | 0.322 | 0.357 | 0.43 | 0.448 | 0.338 | 0.452 | 0.419 | 0.448 | 0.399 | 0.39 | 0.407 | 0.466 | 0.496 | 0.529 | 0.458 | 0.458 |
| NCI-H1648 | – | – | – | – | – | – | – | – | – | – | 0.325 | 0.287 | 0.235 | 0.247 | 0.255 | 0.502 | 0.445 | 0.444 | 0.455 | 0.458 |
| SW 900 | – | – | – | – | – | 0.83 | 0.834 | 0.478 | 0.618 | 0.554 | 0.588 | 0.632 | 0.615 | 0.611 | 0.571 | 0.395 | 0.456 | 0.444 | 0.377 | 0.444 |
| NCI-H596 | 0.372 | 0.394 | 0.376 | 0.387 | 0.428 | 0.711 | 0.864 | 0.785 | 0.815 | 0.804 | – | – | – | – | – | 1.09 | 1.01 | 0.893 | 0.985 | 1.14 |
| IA-LM | 0.412 | 0.333 | 0.481 | 0.279 | 0.337 | – | – | – | – | – | – | – | – | – | – | – | – | – | – | – |
| NCI-H1563 | 0.631 | 0.629 | 0.685 | 0.635 | 0.672 | 0.591 | 0.669 | 0.665 | 0.656 | 0.664 | – | – | – | – | – | – | – | – | – | – |
| NCI-H522 | – | – | – | – | – | 0.637 | 0.686 | 0.583 | 0.625 | 0.769 | 1.07 | 1.05 | 0.972 | 1.19 | 1.06 | 0.651 | 0.647 | 0.665 | 0.727 | 0.785 |
| CAL-12T | 0.664 | 0.3 | 0.295 | 0.528 | 0.722 | 0.585 | 0.624 | 0.556 | 0.616 | 0.664 | 0.563 | 0.55 | 0.406 | 0.526 | 0.589 | – | – | – | – | – |
